The text below walks through data of US3995058A, “Treatment of ethanol withdrawal symptoms with levodopa” (priority 1975, dated 1976).

Data set [1] has as its system parkinsonism tremor. Particulars: in vivo; cited from earlier work.
In data set [2] the test system is ethanol withdrawal head-twitches. The experiment in a line: Suppression of ethanol withdrawal head-twitches in mice habituated to ethanol. Type of data set: in vivo, mice (male T/O). The following applies: for ED50: Mus musculus; for suppression of head-twitches: mice undergoing ethanol withdrawal. The procedure:
(§1) Male T/O mice were habituated to ethanol by oral administration of aqueous ethanol solutions over three days. Ethanol was administered as a 40% w/v solution, the animals receiving 4 g/kg on the first day, 5 g/kg on the second day and 6 g/kg on the third day. Twenty-four hours after the third dose, approximately 12 hours after blood ethanol had fallen to zero, mice were observed over a period of 4 minutes in groups of five and the number of head-twitches were recorded for each animal. All animals received two doses of levodopa or vehicle, one 6 hours after the last dose of ethanol and the other one hour before observation of the animals. The amount of discoordination produced by each treatment was also determined by measuring the animals' ability to remain for 1 minute on a drum, 30 cm diameter, rotating at a speed of 1 rpm. Using a quantal method the median effective dose (ED50) to suppress head-twitches was determined. […] The ratio FD50 to ED50 gives the therapeutic ratio.
All drugs given one hour before observation except noradrenaline (35
minutes). Doses are expressed as mg/kg orally (P.O.), subcutaneously
(S.C.) or intracerebrally (I.C.V.). *Animals in levodopa experiment
received two doses of levodopa or vehicle, the first being given six hour
after the last dose of ethanol, the second one hour before observation.
The values indicated are computed from the doses of levodopa given on eac
(§2) occasion. The dose of each drug to discoordinate 50% of the animals (FD
(§3) 50) was compared with the dose that reduced to 50% the proportion of mice
(§4) showing head-twitches (ED 50).

Data set [3] is described as follows: Discoordination: ability to remain for 1 minute on a rotating drum. Particulars: mouse, in vivo; for TD50 at 1 h: po. The procedure: as §1, §2, §3
Data set [4] is described as follows: Therapeutic ratio FD50/ED50 (discoordination against head-twitches). Particulars: mouse, in vivo. The procedure:
as §1, §2, §3, §4

The subject of data set [5] is discoordination. The experiment in a line: Discoordination: ability to remain for 1 minute on a rotating drum. The following applies: mouse, in vivo. The method, then:
as §1, §2, §3

The subject of data set [6] is brain catecholamines. Particulars: increasing doses of levodopa; cited from earlier work.
Data set [7] has as its system sleep. The following applies: cited from earlier work.
Data set [8] concerns depression. The following applies: in vivo; cited from earlier work.
Data set [9] has as its system delirium tremors or seizures. Particulars: severe cases of physical dependence; cited from earlier work.
Data set [10] relates to withdrawal symptoms. The experiment in a line: Production of withdrawal symptoms. Particulars: in vivo.

SMILES strings stand for the structures. Read-outs that look alike come from different tables or passages of the source.

As to `NC(CO)C(=O)NNCc1cc(O)c(O)c(O)c1` (racemic) [N'-(D,L-seryl)-N"-(3,4,5-trihydroxybenzyl)-hydrazine], in data set [1], the “control of parkinsonism tremor” value was “useful in the control of parkinsonism tremor”.

For the compound `CC(N)Cc1ccccc1.O=S(=O)(O)O` (centres unmarked) [Amphetamine sulphate], in data set [2] (sc, 1 h, read-out: ED 50 value to reduce head-twitches (with 95% fiducial limits)), the ED50 is 7.18 mg/kg. In data set [2] (subcutaneously), the suppression of head-twitches result is “complete suppression of head-twitches”.

In general, TD50 refers to the dose at which the toxic effect under study appears in half of the subjects. A low value points to greater toxicity. The compound `CCO` [Ethanol, ethanol] returned a TD50 at 1 h in data set [3] of 2500 mg/kg. Besides, the selectivity ratio in [4] (po) is 0.6. In addition, the ED50 in data set [2] (po, 1 h, P.O., one hour before observation, read-out: ED 50 value to reduce head-twitches (with 95% fiducial limits)) worked out at 3990 mg/kg.

`N[C@@H](Cc1ccc(O)c(O)c1)C(=O)O` [L-DOPA, L-β-3,4-dihydroxyphenylalanine] came in with a TD50 at 1 h in data set [3] above 800 mg/kg. Moreover, in data set [5], the animals discoordinated result is “none of the animals were discoordinated”. Also, the selectivity ratio in data set [4] (po) is 3.5. The “shift of brain catecholamine levels” value in [6] is reported as “increasing shift of brain levels from dopamine to noradrenaline”. The ED50 in [2] (po, P.O.*, two doses: 6 h after last ethanol and 1 h before observation, per-occasion dose, limits 63-1213, read-out: ED 50 value to reduce head-twitches (with 95% fiducial limits)) was determined as 232 mg/kg; in [2] (po, levodopa, text of summary, read-out: median effective dose (ED50) required to prevent or suppress withdrawal symptoms), 231 mg/kg. The “effect on sleeping time with repeated doses” value in [7] (increasing numbers of doses) was “this effect became smaller with increasing numbers of doses”. Moreover, in data set [7] (single dose 400 mg/kg), the “increase in sleeping time” value was “three-fold increase in sleeping time”. In addition, the “therapeutic use in the treatment of depression” value in [8] was “of questionable value”.

`NC[C@H](O)c1ccc(O)c(O)c1` [Noradrenaline] yielded a TD50 at 35 min in data set [3] (icv or intrathecal) above 0.01 mg/kg. Besides, the selectivity ratio in data set [4] is above 3.3. Besides, the ED50 in data set [2] (central, 35 min, I.C.V., 35 minutes before observation, read-out: ED 50 value to reduce head-twitches (with 95% fiducial limits)) turned out to be 0.003 mg/kg. Also, the suppression of head-twitches result in [2] (intracerebral injection) is “complete suppression of head-twitches”.

`CCCC(C)C1(CC)C(=O)NC(=O)NC1=O` (centres unmarked) [Pentobarbitone sodium] gave a TD50 at 1 h in [3] of 91 mg/kg. Also, in data set [4] (po), the selectivity ratio stood at 0.4. In data set [2] (po, 1 h, read-out: ED 50 value to reduce head-twitches (with 95% fiducial limits)), the ED50 is 231 mg/kg.

Consider `CN(C)CCCN1c2ccccc2Sc2ccc(Cl)cc21` [chlorpromazine], for which the “prevention of delirium tremors or seizures” value in data set [9] is “ineffective to prevent delirium tremors or seizures”.

Turning to `CN(C)CCCN1c2ccccc2Sc2ccccc21` [promazine], in data set [9], the “prevention of delirium tremors or seizures” value was “ineffective to prevent delirium tremors or seizures”.

In the case of `CC(N)(Cc1ccc(O)cc1)C(=O)O` (stereo not drawn) [α-methyl p-tyrosine], the withdrawal symptoms produced result in data set [10] is listed as “produces withdrawal symptoms that can be reduced by anti-serotonin agents”.

Consider `CC(Cc1ccc(O)c(O)c1)(NN)C(=O)O` (stereo not drawn) [α-methyl-dopa hydrazine], for which, in data set [1], the “control of parkinsonism tremor” value is given as “useful in the control of parkinsonism tremor”.
